Results published in ChEMBL document CHEMBL1201862, “PubChem BioAssay data set” (2004).
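48-hour exposure; five concentrations; linearly interpolated endpoints. GI50 is the concentration that inhibits growth by half.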 Active and inactive are the calls of the source. Rule as the data show it: active = GI50 up to about 1.1 µM and inactive = higher.

Columns and labels:
Test in all cases: NCI-60 cell line screen, 48 h
BT-549 = tested on: BT-549
CCRF-CEM = tested on: CCRF-CEM
DU-145 = tested on: DU-145
HCT-15 = tested on: HCT-15
HOP-92 = tested on: HOP-92
HT-29 = tested on: HT-29
M14 = tested on: M14
MCF7 = tested on: MCF7
MDA-N = tested on: MDA-N
NCI-H522 = tested on: NCI-H522
NCI/ADR-RES = tested on: NCI/ADR-RES
OVCAR-4 = tested on: OVCAR-4
OVCAR-5 = tested on: OVCAR-5
OVCAR-8 = tested on: OVCAR-8
RPMI-8226 = tested on: RPMI-8226
SK-MEL-28 = tested on: SK-MEL-28
SK-OV-3 = tested on: SK-OV-3
SNB-19 = tested on: SNB-19
TK-10 = tested on: TK-10
T47D = tested on: T47D

| SMILES | GI50 (BT-549) | GI50 (CCRF-CEM) | GI50 (DU-145) | GI50 (HCT-15) | GI50 (HOP-92) | GI50 (HT-29) | GI50 (M14) | GI50 (MCF7) | GI50 (MDA-N) | GI50 (NCI-H522) | GI50 (NCI/ADR-RES) | GI50 (OVCAR-4) | GI50 (OVCAR-5) | GI50 (OVCAR-8) | GI50 (RPMI-8226) | GI50 (SK-MEL-28) | GI50 (SK-OV-3) | GI50 (SNB-19) | GI50 (TK-10) | GI50 (T47D) |
| --- | --- | --- | --- | --- | --- | --- | --- | --- | --- | --- | --- | --- | --- | --- | --- | --- | --- | --- | --- | --- |
| C/C(=N\Nc1nc2cccnc2s1)c1ccccn1 | 0.117 µM (active) | < 0.01 µM (active) | 0.316 µM (active) | < 0.0218 µM | 0.37 µM (active) | < 0.01 µM (active) | < 0.01 µM (active) | 0.0136 µM (active) | 1.81 µM (inactive) | < 0.01 µM (active) | < 0.01 µM (active) | 1.07 µM (active) | 0.845 µM (active) | < 0.01 µM (active) | < 0.0143 µM (active) | 0.364 µM (active) | 0.0902 µM (active) | 0.491 µM (active) |  |  |
| O=P1(O)c2ccccc2CCc2ccccc21 | 80.7 µM (inactive) | > 100 µM (inactive) | > 100 µM (inactive) | > 100 µM | > 100 µM (inactive) |  | > 100 µM (inactive) | > 100 µM (inactive) | > 100 µM (inactive) | > 100 µM (inactive) |  |  |  | > 100 µM (inactive) | > 100 µM (inactive) | > 100 µM (inactive) | > 100 µM (inactive) | > 100 µM (inactive) | > 100 µM (inactive) |  |
| C=C(C)C1CC[C@@](C)(O)[C@H](C#N)C1 (stereo partly specified) | > 100 µM (inactive) | > 100 µM (inactive) | > 100 µM (inactive) | > 100 µM |  | > 100 µM (inactive) | > 100 µM (inactive) | > 100 µM (inactive) | > 100 µM (inactive) | > 100 µM (inactive) |  | > 100 µM (inactive) | > 100 µM (inactive) | > 100 µM (inactive) | > 100 µM (inactive) | > 100 µM (inactive) | > 100 µM (inactive) | > 100 µM (inactive) | > 100 µM (inactive) | > 100 µM (inactive) |
| CCc1cn2c(/C=N/N=C(N)N)c(-c3cc(C)c(Cl)cc3Cl)nc2s1 | 1.64 µM (inactive) | 0.209 µM (active) | 1.64 µM (inactive) | 1.62 µM | 1.64 µM (inactive) | 1.22 µM (inactive) | 1.65 µM (inactive) | 1.71 µM (inactive) |  | 1.87 µM (inactive) | 3.95 µM (inactive) | 1.42 µM (inactive) | 1.61 µM (inactive) | 1.58 µM (inactive) | 1.24 µM (inactive) | 1.48 µM (inactive) | 1.7 µM (inactive) | 1.54 µM (inactive) | 1.97 µM (inactive) | 1.4 µM (inactive) |
| CN(C)CCNC(=O)c1cccc2nc3c(C(=O)NCCN(C)C)cccc3nc12 | 3.18 µM (inactive) | 0.59 µM (active) | 1.37 µM (inactive) | 2.98 µM | 2.9 µM (inactive) | 0.321 µM (active) | 1.51 µM (inactive) | 0.706 µM (active) |  | 0.458 µM (active) | 5.15 µM (inactive) | 0.589 µM (active) | 2.3 µM (inactive) | 0.421 µM (active) | 1.19 µM (inactive) | 2.03 µM (inactive) |  | 1.11 µM (active) | 1.86 µM (inactive) | 4.34 µM (inactive) |
| CSc1nc(C)c(CCCl)c(Cl)n1 | 87.7 µM (inactive) | 20.8 µM (inactive) | > 100 µM (inactive) | > 100 µM |  | > 100 µM (inactive) | 32.4 µM (inactive) |  | 49.8 µM (inactive) | 20.6 µM (inactive) | > 100 µM (inactive) | > 100 µM (inactive) |  | > 100 µM (inactive) |  | > 100 µM (inactive) | > 100 µM (inactive) | > 100 µM (inactive) | > 100 µM (inactive) | > 100 µM (inactive) |
| O=C(NCCO)c1c(O)c2ccccc2[nH]c1=O | > 100 µM (inactive) | > 100 µM (inactive) | > 100 µM (inactive) | 62.2 µM | > 100 µM (inactive) | > 100 µM (inactive) |  | > 100 µM (inactive) | > 100 µM (inactive) | > 100 µM (inactive) | > 100 µM (inactive) | > 100 µM (inactive) | > 100 µM (inactive) | > 100 µM (inactive) | > 100 µM (inactive) | > 100 µM (inactive) |  | > 100 µM (inactive) | > 100 µM (inactive) |  |
| CC(/C=C/c1ccccc1)=N\NC(N)=S | 29.9 µM (inactive) | 49.7 µM (inactive) | 34.4 µM (inactive) | 27.4 µM | > 100 µM (inactive) | 56.6 µM (inactive) | 26.5 µM (inactive) | 33 µM (inactive) | 29.6 µM (inactive) |  | 27.9 µM (inactive) |  | 58.5 µM (inactive) | 39 µM (inactive) | 33.7 µM (inactive) | > 100 µM (inactive) | 45.4 µM (inactive) | 24 µM (inactive) | 39.4 µM (inactive) | 11.8 µM (inactive) |
| Cc1[nH]n(C2=NCCN2)c(=O)c1C | > 100 µM (inactive) | > 100 µM (inactive) |  | > 100 µM | > 100 µM (inactive) | > 100 µM (inactive) | > 100 µM (inactive) | > 100 µM (inactive) |  | > 100 µM (inactive) | > 100 µM (inactive) | > 100 µM (inactive) | > 100 µM (inactive) | > 100 µM (inactive) | > 100 µM (inactive) |  | > 100 µM (inactive) | > 100 µM (inactive) | > 100 µM (inactive) | > 100 µM (inactive) |
